ChEMBL document CHEMBL1137599, “Discovery of uracil-based histone deacetylase inhibitors able to reduce acquired antifungal resistance and trailing growth in Candida albicans” (Bioorg Med Chem Lett, 2007)
≈ marks a conversion by molar mass, not a printed value.

How the values were obtained:
Candida albicans [1] = experiment: Effect of compound on Candida albicans sensitivity to Fluconazole: Minimum inhibitory concentration required to inhibit the growth of 50% of isolates after 24h.; assay type: functional
Candida albicans [2] = experiment: Effect of compound on Candida albicans sensitivity to Fluconazole: Minimum inhibitory concentration required to inhibit the growth of 90% of isolates after 24h.; assay type: functional
Candida albicans [3] = experiment: microbe, parasite or virus in culture; assay type: functional; conditions: 48 h
Description: Effect of compound on Candida albicans sensitivity to Fluconazole: Minimum inhibitory concentration required to inhibit the growth of 50% of isolates after 48h.

Candida albicans [4] = experiment: Effect of compound on Candida albicans sensitivity to Fluconazole: Minimum inhibitory concentration required to inhibit the growth of 90% of isolates after 48h.; assay type: functional
Histone deacetylase 1 = Histone deacetylase 1 (Mus musculus, UniProt O09106); experiment: Inhibition of mouse HDAC1 (mean)
Histone deacetylase HD2 = biological target: T1, Histone deacetylase HD2 (Zea mays, UniProt Q94F81); experiment: Inhibition of maize HD2 (mean)
T1 sequence (Q94F81 whole entry): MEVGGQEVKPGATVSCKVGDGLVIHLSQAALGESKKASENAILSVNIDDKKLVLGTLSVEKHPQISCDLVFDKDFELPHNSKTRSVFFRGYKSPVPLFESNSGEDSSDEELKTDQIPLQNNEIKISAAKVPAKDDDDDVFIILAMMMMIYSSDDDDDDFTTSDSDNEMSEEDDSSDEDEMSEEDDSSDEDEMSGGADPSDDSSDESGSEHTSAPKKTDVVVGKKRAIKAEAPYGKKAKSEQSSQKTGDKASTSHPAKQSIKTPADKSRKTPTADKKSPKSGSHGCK

Histone deacetylase HD1B = Histone deacetylase HD1B (Zea mays, UniProt Q9ZTP8); experiment: Inhibition of maize HD1-B (mean)
[5] = biological target: Histone deacetylase HD1-A (Zea mays); experiment: Inhibition of maize HD1-A (mean)

Sequence of Histone deacetylase HD1B (Q9ZTP8 whole entry): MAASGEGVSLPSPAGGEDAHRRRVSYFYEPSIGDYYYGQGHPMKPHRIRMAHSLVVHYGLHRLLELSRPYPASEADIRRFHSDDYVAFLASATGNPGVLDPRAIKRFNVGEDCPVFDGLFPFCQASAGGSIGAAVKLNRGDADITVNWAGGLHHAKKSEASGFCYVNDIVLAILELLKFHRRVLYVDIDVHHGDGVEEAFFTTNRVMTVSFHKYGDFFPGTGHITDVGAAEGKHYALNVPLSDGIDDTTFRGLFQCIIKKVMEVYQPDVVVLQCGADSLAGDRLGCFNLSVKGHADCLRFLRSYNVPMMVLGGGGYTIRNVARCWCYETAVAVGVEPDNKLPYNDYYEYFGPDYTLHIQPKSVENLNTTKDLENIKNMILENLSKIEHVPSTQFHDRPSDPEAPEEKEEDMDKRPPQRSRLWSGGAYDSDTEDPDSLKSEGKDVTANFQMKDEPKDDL
Sequence of Histone deacetylase 1 (O09106 whole entry): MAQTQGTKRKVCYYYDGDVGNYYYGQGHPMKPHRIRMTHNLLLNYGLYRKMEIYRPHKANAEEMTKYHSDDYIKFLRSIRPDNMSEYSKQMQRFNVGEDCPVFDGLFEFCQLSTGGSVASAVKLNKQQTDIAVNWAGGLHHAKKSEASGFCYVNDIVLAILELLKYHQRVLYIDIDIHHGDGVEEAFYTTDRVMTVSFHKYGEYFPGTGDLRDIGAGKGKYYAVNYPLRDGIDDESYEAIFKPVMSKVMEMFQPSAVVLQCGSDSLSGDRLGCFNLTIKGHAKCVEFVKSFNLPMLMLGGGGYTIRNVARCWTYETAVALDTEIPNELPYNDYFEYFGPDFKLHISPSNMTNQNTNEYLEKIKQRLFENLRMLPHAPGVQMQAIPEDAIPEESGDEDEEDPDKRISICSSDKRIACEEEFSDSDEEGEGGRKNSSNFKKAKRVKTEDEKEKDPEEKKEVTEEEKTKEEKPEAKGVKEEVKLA

O=C(CCCCSc1nc(-c2ccccc2)cc(=O)[nH]1)NO
MIC50 (Candida albicans [1]): 0.5 µg/mL (≈ 1.57 µM)
MIC90 (Candida albicans [2]): 4 µg/mL (≈ 12.5 µM)
MIC50 (Candida albicans [3]): 0.5 µg/mL (≈ 1.57 µM)
MIC90 (Candida albicans [4]): 12 µg/mL (≈ 37.6 µM)

O=C(CCCCSc1nc(-c2cccc(Cl)c2)cc(=O)[nH]1)NO
IC50 (Histone deacetylase 1): 0.013 µg/mL (≈ 0.0367 µM)
MIC50 (Candida albicans [1]): 0.44 µg/mL (≈ 1.24 µM)
MIC90 (Candida albicans [2]): 3.42 µg/mL (≈ 9.67 µM)
MIC50 (Candida albicans [3]): 1 µg/mL (≈ 2.83 µM)
MIC90 (Candida albicans [4]): 8 µg/mL (≈ 22.6 µM)
IC50 (Histone deacetylase HD2): 0.006 µg/mL (≈ 0.017 µM)
IC50 (Histone deacetylase HD1B): 0.004 µg/mL (≈ 0.0113 µM)

O=C(CCCCSc1nc(-c2ccc(Cl)cc2)cc(=O)[nH]1)NO
IC50 (Histone deacetylase 1): 0.018 µg/mL (≈ 0.0509 µM)
MIC50 (Candida albicans [1]): 0.5 µg/mL (≈ 1.41 µM)
MIC90 (Candida albicans [2]): 2 µg/mL (≈ 5.65 µM)
MIC50 (Candida albicans [3]): 1 µg/mL (≈ 2.83 µM)
MIC90 (Candida albicans [4]): 16 µg/mL (≈ 45.2 µM)
IC50 (Histone deacetylase HD2): 0.006 µg/mL (≈ 0.017 µM)
IC50 (Histone deacetylase HD1B): 0.004 µg/mL (≈ 0.0113 µM)
IC50 [5]: 0.001 µg/mL (≈ 0.00283 µM)

O=C(CCCCCSc1nc(Cc2ccccc2)cc(=O)[nH]1)NO
MIC50 (Candida albicans [1]): 0.5 µg/mL (≈ 1.44 µM)
MIC90 (Candida albicans [2]): 4 µg/mL (≈ 11.5 µM)
MIC50 (Candida albicans [3]): 0.625 µg/mL (≈ 1.8 µM)
MIC90 (Candida albicans [4]): 12 µg/mL (≈ 34.5 µM)

OC(Cn1cncn1)(Cn1cncn1)c1ccc(F)cc1F [FLUCONAZOLE]
MIC50 (Candida albicans [1]): 1.45 µg/mL (≈ 4.73 µM)
MIC90 (Candida albicans [2]): 3.6 µg/mL (≈ 11.8 µM)
MIC50 (Candida albicans [3]): 2.5 µg/mL (≈ 8.16 µM)
MIC90 (Candida albicans [4]): 11 µg/mL (≈ 35.9 µM)

O=C(CCCCCCC(=O)Nc1ccccc1)NO [VORINOSTAT]
IC50 (Histone deacetylase HD2): 0.013 µg/mL (≈ 0.0492 µM)
IC50 (Histone deacetylase HD1B): 0.007 µg/mL (≈ 0.0265 µM)
